Test results from ChEMBL document CHEMBL5465560, “Selectivity Literature for EUbOPEN Chemogenomic Library” (2024).

How the values were obtained:
[1] = target: Protein kinase C theta type (Homo sapiens, UniProt Q04759); assay: Selectivity interaction (KinomeScan (DiscoverX)) EUB0000695a PRKCQ; settings: at 100 nM
[2] = target: Serine/threonine-protein kinase VRK2 (Homo sapiens) (UniProt Q86Y07); settings: at 10 µM
[3] = target: Potassium voltage-gated channel subfamily A member 1 (Homo sapiens) (UniProt Q09470); assay: Selectivity interaction (Panel of non-epigenetic targets (kinases, GPCRs, ion channels, and transporters, Eurofins) ) EUB0000271b KCNA1; settings: at 1 µM
Chain of Potassium voltage-gated channel subfamily A member 1 (Homo sapiens) (Q09470 whole entry): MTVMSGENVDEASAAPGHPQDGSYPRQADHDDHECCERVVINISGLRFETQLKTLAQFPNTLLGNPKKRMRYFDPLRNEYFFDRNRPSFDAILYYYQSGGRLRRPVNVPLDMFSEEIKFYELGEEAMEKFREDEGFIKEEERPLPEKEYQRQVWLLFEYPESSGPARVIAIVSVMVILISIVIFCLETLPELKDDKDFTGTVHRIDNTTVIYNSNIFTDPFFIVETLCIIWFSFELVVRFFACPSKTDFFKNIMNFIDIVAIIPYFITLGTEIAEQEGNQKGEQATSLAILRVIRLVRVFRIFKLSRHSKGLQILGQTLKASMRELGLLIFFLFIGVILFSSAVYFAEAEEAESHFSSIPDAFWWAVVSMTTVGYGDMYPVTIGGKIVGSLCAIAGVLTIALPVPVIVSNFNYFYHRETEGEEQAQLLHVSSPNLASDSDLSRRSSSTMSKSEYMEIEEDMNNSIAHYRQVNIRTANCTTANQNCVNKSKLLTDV

[4] = target: T1, Alpha-2A adrenergic receptor (Homo sapiens) (UniProt P08913); assay: Selectivity interaction (Panel of non-epigenetic targets (kinases, GPCRs, ion channels, and transporters, Eurofins) ) EUB0000271b ADRA2A; settings: at 1 µM
T1 sequence (whole entry): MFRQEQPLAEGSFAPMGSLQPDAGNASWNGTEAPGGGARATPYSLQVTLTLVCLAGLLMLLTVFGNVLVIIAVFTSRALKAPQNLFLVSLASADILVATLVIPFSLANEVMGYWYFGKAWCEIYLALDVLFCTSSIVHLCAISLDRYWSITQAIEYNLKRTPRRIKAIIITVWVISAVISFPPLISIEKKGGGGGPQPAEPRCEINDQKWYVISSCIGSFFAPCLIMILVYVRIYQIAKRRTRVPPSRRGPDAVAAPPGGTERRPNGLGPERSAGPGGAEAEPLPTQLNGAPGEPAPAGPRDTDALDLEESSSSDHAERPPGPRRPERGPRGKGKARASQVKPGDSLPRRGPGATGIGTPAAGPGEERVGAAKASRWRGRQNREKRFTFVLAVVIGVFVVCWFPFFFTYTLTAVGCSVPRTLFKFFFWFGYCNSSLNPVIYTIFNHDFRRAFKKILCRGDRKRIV

[5] = target: Casein kinase I isoform alpha (Homo sapiens, UniProt P48729); assay: Selectivity interaction (KinomeScan (DiscoverX)) EUB0001049a CSNK1A1; settings: at 1 µM
Chain of Casein kinase I isoform alpha (P48729 2-337 limits assumed): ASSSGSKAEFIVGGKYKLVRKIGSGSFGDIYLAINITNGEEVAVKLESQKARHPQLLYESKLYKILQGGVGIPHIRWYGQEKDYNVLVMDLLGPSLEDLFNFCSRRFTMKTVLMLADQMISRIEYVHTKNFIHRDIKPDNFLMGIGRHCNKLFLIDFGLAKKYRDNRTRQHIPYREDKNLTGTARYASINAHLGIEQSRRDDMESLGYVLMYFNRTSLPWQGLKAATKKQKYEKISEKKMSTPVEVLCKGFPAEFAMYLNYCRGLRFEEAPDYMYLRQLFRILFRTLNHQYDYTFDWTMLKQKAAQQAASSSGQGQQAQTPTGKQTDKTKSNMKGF

[6] = target: T2, Serine/threonine-protein kinase 3 (Homo sapiens) (UniProt Q13188); assay: Selectivity interaction (Upstate Kinase Profiler service (Millipore)) EUB0000056c STK3; settings: at 1 µM
T2 sequence (whole entry): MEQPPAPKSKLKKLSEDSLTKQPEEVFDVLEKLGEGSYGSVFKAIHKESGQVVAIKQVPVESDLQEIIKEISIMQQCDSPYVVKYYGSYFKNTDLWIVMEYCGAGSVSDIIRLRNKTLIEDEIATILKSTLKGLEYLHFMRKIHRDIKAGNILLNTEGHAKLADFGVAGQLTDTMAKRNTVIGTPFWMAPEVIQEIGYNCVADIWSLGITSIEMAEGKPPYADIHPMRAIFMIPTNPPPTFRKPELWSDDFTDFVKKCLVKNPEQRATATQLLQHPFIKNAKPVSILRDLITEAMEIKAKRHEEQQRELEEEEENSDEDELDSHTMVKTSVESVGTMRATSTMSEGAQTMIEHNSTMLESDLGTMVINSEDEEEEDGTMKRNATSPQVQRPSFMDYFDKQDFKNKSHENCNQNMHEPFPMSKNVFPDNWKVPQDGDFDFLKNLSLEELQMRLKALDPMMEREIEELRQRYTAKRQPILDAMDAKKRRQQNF

[7] = target: Ribosomal protein S6 kinase alpha-5 (Homo sapiens) (UniProt O75582); assay: Selectivity interaction (Kinase panel (DSF assay)) EUB0001558a RPS6KA5
Chain of Ribosomal protein S6 kinase alpha-5 (Homo sapiens) (O75582 whole entry, looked up): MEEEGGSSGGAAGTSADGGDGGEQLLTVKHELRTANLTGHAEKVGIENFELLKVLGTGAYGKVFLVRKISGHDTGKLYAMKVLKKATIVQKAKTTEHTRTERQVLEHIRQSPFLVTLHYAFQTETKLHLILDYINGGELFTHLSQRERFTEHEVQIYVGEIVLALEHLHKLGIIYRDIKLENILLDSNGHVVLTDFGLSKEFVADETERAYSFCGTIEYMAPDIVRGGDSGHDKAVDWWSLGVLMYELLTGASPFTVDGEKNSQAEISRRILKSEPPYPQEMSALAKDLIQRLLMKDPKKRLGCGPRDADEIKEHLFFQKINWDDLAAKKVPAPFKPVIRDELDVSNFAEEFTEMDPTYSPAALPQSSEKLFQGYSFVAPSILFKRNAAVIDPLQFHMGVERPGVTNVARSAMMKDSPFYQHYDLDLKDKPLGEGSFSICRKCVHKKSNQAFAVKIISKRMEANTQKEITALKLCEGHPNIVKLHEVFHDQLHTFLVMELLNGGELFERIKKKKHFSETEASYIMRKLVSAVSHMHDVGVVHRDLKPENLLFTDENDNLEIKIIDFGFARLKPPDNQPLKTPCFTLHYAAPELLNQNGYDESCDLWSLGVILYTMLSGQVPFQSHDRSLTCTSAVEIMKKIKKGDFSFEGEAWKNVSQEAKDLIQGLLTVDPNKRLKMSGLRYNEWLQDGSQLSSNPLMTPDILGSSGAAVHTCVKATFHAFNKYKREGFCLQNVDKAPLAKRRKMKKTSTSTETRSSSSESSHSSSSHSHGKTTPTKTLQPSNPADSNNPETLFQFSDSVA

[8] = target: Casein kinase II subunit alpha' (Homo sapiens) (UniProt P19784); assay: Selectivity interaction (KinomeScan (DiscoverX)) EUB0000618a CSNK2A2; settings: at 10 µM
Chain of Casein kinase II subunit alpha' (Homo sapiens) (P19784 whole entry, looked up): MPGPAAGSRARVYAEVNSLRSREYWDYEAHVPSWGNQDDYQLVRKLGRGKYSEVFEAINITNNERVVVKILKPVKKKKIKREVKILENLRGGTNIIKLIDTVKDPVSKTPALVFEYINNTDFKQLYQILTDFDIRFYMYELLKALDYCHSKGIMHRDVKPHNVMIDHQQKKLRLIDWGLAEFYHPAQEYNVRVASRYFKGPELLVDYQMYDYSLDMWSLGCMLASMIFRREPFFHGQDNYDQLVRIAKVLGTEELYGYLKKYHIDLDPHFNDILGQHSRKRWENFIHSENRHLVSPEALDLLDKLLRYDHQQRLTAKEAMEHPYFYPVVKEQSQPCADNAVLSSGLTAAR

[9] = target: T3, Tyrosine-protein kinase TXK (Homo sapiens) (UniProt P42681); assay: Selectivity interaction (KinomeScan (DiscoverX)) EUB0000655a TXK; settings: at 10 µM
T3 sequence (whole entry): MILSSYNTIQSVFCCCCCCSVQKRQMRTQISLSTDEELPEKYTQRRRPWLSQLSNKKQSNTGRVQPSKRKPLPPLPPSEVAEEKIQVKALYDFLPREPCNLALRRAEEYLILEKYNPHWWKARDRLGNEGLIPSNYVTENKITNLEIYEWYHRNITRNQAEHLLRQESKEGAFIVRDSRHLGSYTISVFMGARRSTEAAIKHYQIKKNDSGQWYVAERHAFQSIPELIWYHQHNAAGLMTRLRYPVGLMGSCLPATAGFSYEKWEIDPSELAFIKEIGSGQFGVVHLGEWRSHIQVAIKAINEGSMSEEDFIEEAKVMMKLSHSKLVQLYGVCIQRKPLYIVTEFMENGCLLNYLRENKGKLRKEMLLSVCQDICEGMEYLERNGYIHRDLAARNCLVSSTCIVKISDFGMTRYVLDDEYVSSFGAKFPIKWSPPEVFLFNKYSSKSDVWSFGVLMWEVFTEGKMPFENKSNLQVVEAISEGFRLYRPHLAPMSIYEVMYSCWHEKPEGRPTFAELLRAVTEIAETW

[10] = target: T4, Tyrosine-protein kinase receptor TYRO3 (Homo sapiens) (UniProt Q06418); assay: Selectivity interaction (KinomeScan (DiscoverX)) EUB0000655a TYRO3; settings: at 10 µM
T4 sequence (whole entry): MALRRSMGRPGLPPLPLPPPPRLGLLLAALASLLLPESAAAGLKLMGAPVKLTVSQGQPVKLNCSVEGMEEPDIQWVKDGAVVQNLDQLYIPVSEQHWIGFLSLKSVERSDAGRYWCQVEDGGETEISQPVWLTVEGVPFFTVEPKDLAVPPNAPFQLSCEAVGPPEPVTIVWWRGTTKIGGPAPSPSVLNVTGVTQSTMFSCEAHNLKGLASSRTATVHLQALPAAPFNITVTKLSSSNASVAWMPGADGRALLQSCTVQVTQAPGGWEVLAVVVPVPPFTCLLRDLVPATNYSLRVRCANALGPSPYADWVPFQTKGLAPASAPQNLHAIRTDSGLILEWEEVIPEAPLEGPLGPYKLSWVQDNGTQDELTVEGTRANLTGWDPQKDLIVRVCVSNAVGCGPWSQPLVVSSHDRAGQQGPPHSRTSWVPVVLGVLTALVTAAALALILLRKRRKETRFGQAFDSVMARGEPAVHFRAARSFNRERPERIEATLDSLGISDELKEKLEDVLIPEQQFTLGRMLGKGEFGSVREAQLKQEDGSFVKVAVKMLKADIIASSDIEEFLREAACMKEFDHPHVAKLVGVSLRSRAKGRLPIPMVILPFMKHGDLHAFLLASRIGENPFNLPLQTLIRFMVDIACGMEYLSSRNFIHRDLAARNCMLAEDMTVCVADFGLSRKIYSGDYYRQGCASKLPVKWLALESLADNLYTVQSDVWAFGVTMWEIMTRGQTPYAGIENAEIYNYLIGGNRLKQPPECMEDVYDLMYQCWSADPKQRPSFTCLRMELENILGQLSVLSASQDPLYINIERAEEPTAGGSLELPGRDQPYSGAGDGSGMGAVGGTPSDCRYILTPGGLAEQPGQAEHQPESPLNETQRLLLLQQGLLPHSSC

Chain of Serine/threonine-protein kinase VRK2 (Homo sapiens) (Q86Y07 whole entry): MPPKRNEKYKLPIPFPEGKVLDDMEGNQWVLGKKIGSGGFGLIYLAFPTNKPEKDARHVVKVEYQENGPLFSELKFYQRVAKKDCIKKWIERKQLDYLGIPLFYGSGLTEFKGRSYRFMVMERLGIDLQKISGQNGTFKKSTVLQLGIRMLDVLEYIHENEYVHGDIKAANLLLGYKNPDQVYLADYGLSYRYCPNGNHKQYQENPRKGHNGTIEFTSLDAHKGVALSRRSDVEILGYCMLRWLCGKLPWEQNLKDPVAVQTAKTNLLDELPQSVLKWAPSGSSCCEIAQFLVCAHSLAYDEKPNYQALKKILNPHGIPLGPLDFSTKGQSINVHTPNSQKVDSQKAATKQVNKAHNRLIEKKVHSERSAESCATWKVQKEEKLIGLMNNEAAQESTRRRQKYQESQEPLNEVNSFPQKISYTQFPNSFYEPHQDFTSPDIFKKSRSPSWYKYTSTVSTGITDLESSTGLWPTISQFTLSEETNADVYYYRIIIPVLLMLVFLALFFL
Chain of Protein kinase C theta type (Q04759 whole entry, looked up): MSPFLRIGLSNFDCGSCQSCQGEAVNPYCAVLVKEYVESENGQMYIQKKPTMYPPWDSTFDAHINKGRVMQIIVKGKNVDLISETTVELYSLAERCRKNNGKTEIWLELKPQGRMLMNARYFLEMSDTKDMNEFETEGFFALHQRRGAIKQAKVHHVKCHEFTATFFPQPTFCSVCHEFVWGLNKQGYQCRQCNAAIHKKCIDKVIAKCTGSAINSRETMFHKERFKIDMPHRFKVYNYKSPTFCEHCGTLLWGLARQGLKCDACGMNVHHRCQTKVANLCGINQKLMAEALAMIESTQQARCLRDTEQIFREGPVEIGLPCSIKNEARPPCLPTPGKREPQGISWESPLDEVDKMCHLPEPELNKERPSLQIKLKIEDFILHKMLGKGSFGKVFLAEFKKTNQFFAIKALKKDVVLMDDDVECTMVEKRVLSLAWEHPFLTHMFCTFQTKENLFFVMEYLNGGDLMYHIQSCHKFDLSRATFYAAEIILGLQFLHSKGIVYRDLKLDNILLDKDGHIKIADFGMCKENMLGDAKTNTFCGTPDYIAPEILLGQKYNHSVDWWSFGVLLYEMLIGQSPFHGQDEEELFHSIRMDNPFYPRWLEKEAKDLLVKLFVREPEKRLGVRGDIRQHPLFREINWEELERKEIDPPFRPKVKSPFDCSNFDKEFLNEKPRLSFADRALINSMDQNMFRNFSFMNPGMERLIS

Cc1cc(F)c(C(=O)Nc2cccc(-c3nncn3C(C)C)n2)cc1-n1cnc(C2CC2)c1
% of control [1]: 75%

Cc1cc([C@@H](C)Nc2ccccc2C(=O)O)c2nc(N3CCOCC3)cc(=O)n2c1 [AZD-6482]
% of control [2]: 100%

Cc1cc(C)cc([C@@H]2c3cc(C)ccc3NC(=O)CN2C(=O)c2ccc(Br)s2)c1
% of inhibition [3]: -10% | % of inhibition [4]: -8%

COc1cc(Nc2nc(C)cc(-c3cnn4nc(OC)ccc34)n2)cc(C(F)(F)F)c1
% of control [5]: 77%

Cc1ccc(-c2ccc3c(ccc4sc5c(c43)NC[C@@H](C)NC5=O)n2)cn1
% of inhibition [6]: -17%

CC(C)(O)[C@H](F)CN1Cc2cc(NC(=O)c3cnn4cccnc34)c(N3CCOCC3)cc2C1=O
dTM [7]: 0.5 K

O[C@H]1CC[C@H](Nc2ncc3nc(Nc4c(F)cc(F)cc4F)n([C@H]4CCOC4)c3n2)CC1
% of control [8]: 96%

CN(C)CCOc1ccc(-c2nc(-c3ccncc3)c(-c3ccc4c(c3)CC/C4=N\O)[nH]2)cc1
% of control [9]: 97% | % of control [10]: 100%
